Experimental data taken from US8551445B2, “Preparation and use of alkylating agents” (The Queen's Medical Center, priority 2003, dated 2013).

Key:
[1] = LAL pyrogen test (Charles River Labs Endosafe); conditions: final purified solutions in physiologic saline
[2] = Culture of final purified solutions for microorganism growth (sterility); conditions: 1 mL of final purified solution in physiologic saline; enriched thioglycollate at 37° C. and trypticase soy broth at 23° C.; 2 weeks
Experimental: The final purified solutions in physiologic saline [^18F]FCH and [^18F]FECh were cultured (1 mL) for microorganisms for growth in enriched thioglycollate at 37° C. and trypticase soy broth media at 23° C. […] A positive control standard is always included in the assay. [^18F]FCH is currently in an FDA approved pre-clinical IND safety trial in humans.

[3] = FDA approved pre-clinical IND safety trial in humans; assay type: in vivo; conditions: after about fifty trials

Compound | pyrogens (LAL) [1] | growth of microorganisms in culture [2] | adverse effects [3]
C[N+](C)(C[18F])CCO [[^18F]FCH, [^18F]N,N-Dimethyl-N-fluoromethylethanolamine] | pyrogen free | No growth | no adverse effects
C[N+](C)(CCO)CC[18F] [[^18F]FECh, [^18F]N,N-Dimethyl-N-fluoroethylethanolamine] | pyrogen free | No growth | –
